Where no end group is shown, it is not given here. [ ]: non-standard residue; d: D form. Nva = CCC[C@H](N)C(=O)O
What was measured:
Assay type in all cases: in vivo, mouse
[1] = system: D2.mdx mice; experiment: Serum cytokine profiling (LEGENDplex)
Description: Male D2.mdx mice originated from a colony maintained at York University (Toronto, Canada) and sourced from Jackson Laboratories (Stock Number 013141, Bar Harbor, United States). Mice were treated daily from days 7 to 28 of age with ALY688 at 15 mg/kg b.w. (D2.mdx-ALY688) or saline control (D2.mdx-VEH). This age was chosen given it captures an early stage of disease progression in cardiac and skeletal muscle. Mice were sacrificed 20-24 hr after the last dose. Breeding of wildtype mice was unsuccessful. Instead, three-week-old wildtype DBA/2J WT mice (D2A) were obtained from Jackson Laboratories (Stock number 000671, Bar Harbor, United States) and allowed to acclimatize for one week before sacrifice. Mice were housed in standard 12:12-hr light:dark cycles and were allowed access to standard rodent chow and water ad libitum. 4 days prior to sacrifice, all groups underwent novel object recognition acclimatization and testing as described below. Mice were anesthetized under 5% isoflurane vaporized in medical air (21% oxygen) at a flow rate of 2 L/min and then maintained at 2-3% prior to euthanasia by exsanguination. Muscles were removed and used for another investigation (under review at the time of this submission). The right and left hippocampus were then quickly dissected from the brain with a portion placed immediately into ice-cold BIOPS, containing (in mM): 50 MES Hydrate, 7.23 K2EGTA, 2.77 CaK2EGTA, 20 imidazole, 0.5 dithiothreitol, 20 taurine, 5.77 ATP, 15 PCr, and 6.56 MgCl2·6H2O (pH 7.1) or flash-frozen in liquid nitrogen and stored at −80° C. for RNA isolation and western blotting. All experiments and procedures were approved by the Animal Care Committee at York University (AUP Approval Number 2016-18) in accordance with the Canadian Council on Animal Care.
Protein contents of TGF-β, TNF-α, IL-1β, IL-6 and IL-10 in serum were measured by flow cytometry using LEGENDplex™ Mouse Custom Panel (BioLegend; San Diego, CA, USA). […] The FCS files generated on the flow cytometer were analyzed using the LEGENDplex™ cloud-based analysis software.

[2] = system: D2.mdx mice; experiment: Functional assays (grip strength, cage hang time, voluntary wheel running) and serum creatine kinase
Description: (§1) D2.mdx mice were treated with ALY688 at two different dosages; high dose (HD; 15 mg/kg body weight/day) or low dose (LD; 3 mg/kg body weight/day) dissolved in saline. A separate group of mice were treated with saline alone (VEH, vehicle). Treatment was provided via subscapular subcutaneous injections from 7 days of age to 28-30 days. […] At 28-30 days of age, mice were anaesthetized with isoflurane vaporized in medical air (21% oxygen) at a 2 L/min flow rate. Due to tissue limitations in limb muscle, certain measures were performed separately in tibialis anterior and quadriceps across several phases of breeding. Following the treatment protocol, in situ quadriceps force assessments were then performed in one limb followed by removal of the quadriceps from the other limb for mitochondrial assessments, diaphragm for in vitro force assessments and finally other tissues for further processing as described below. Muscle and visceral organs weights were normalized to tibia length. Tissue collected from the first phase were utilized in force, histological, mitochondrial measures (respiration, mH2O2 and calcium retention capacity) and western analyses (diaphragm and quadriceps only). A second phase was then collected and utilized for cytokine profiling, qPCR analyses and additional westerns (TA only). Serum was collected from both phase 1 and 2 and utilized for serum CK analysis. All animals were utilized in in vivo functional assays (grip strength, cage hang time and voluntary wheel running).
Voluntary wheel running, cage hang time and forelimb grip strength were assessed two days before sacrifice. Serum derived from cardiac puncture at the time of sacrifice were assessed spectrofluorometrically for creatine kinase activity (U/L).

[3] = system: D2.mdx mice; experiment: Muscle cytokine mRNA by quantitative PCR
Description: as §1
Samples were lysed using TRIzol reagent and RNA was separated to aqueous phase using chloroform. The aqueous layer containing RNA was then mixed with isopropanol and loaded to Aurum Total RNA Mini Kit columns (Bio-Rad, Mississauga, ON, Canada). Total RNA was then extracted according to the manufacturer's instructions and concentration was assessed on the nanodrop attachment for the Varioskan LUX Multimode Microplate reader (Thermo Scientific). Reverse transcription of RNA into cDNA was performed by M-MLV reverse transcriptase and oligo (dT) primers (Qiagen). cDNA was then amplified in a CFX384 Touch Real-Time PCR Detection Systems (Bio-Rad) with a SYBR Green master mix and specific primers. Standard curves were created by plotting log DNA concentrations against Ct values from a 1:5 serial dilutions with CFX Manager Software. Gene expression was normalized to a Rplp0 control, and relative differences were determined using the ΔΔCt method Values are presented as fold increases relative to WT group.

[4] = system: D2.mdx mice; experiment: Muscle cytokine protein profiling (LEGENDplex); conditions: HD
Description: as §1
Tibialis anterior and diaphragm samples were homogenized in lysis buffer containing (in mM) (20 Tris/HCl, 150 NaCl, 1 EDTA, 1 EGTA, 1% Triton X-100, 2.5 Na4O7P2, 1 Na3VO4, pH 7.0) supplemented with protease (Roche) and phosphatase inhibitors (Sigma). Samples were diluted two-fold in the assay buffer before loading to the plates with beads. According to the manufacturer's instructions, levels of TGF-β, TNF-α, IL-1β, IL-6 and IL-10 in the homogenates were measured using LEGENDplex™ Mouse Custom Panel. Assay was performed in the Attune NxT flow cytometer (Thermo Fisher). The FCS files generated on the flow cytometer were analyzed using the LEGENDplex™ cloud-based analysis software.

Substance: [dN]IP[Nva]LY[dS]FA[dS]-NH2 [ALY688]
- serum IL-1β ([1]; relative to D2.mdx-VEH): increased
- serum IL-6 ([1]; vs D2.mdx-VEH): attenuated
- serum IL-10 ([1]; vs wildtype): increasing
- serum creatine kinase ([2]; D2.mdx groups): 3.1-to-5.2 fold increase vs WT
- grip strength, cage hang time and voluntary wheel running, comparison between D2.mdx groups ([2]; VEH, LD, HD): similar
- grip strength, cage hang time and voluntary wheel running ([2]; all D2.mdx groups): −15.1% to −91.0
- serum creatine kinase ([2]; low dose vs other D2.mdx groups): increases seen with the low dose
- IL-10 mRNA content ([3]; diaphragm, HD): not different between groups
- TGF-β mRNA contents ([3]; diaphragm, HD): unchanged in all groups
- TNF-α mRNA content ([3]; diaphragm, HD): not different between groups
- IL-1β mRNA ([3]; diaphragm, HD vs VEH): not affected by the drug
- IL-6 mRNA content ([3]; diaphragm, HD, increase in VEH attenuated): 51.8 % increase vs WT
- attenuation of TNF-α mRNA compared to VEH ([3]; tibialis anterior, HD): 41.4%
- IL-6 protein content ([4]; diaphragm): 69.1 % increase vs VEH
- IL-10 protein content ([4]; diaphragm): not different between groups
- TGF-β protein content ([4]; diaphragm): 20.3 % increase vs VEH
- TNF-α protein content ([4]; diaphragm): not different between groups
- prevention of the increase in TNF-α protein content ([4]; tibialis anterior, VEH 40.6 pg/ml, not detectable in wildtype): 83.9%

Source: patent US20240382564A1, “Methods and Compositions for Treating Muscular Dystrophy and Memory Impairment” (Allysta Pharmaceuticals, Inc., priority 2023, published 2024)
